Assay results from ChEMBL document CHEMBL5614409, “Discovery of potent HIV-1 NNRTIs by CuAAC click-chemistry-based miniaturized synthesis, rapid screening and structure optimization” (Eur J Med Chem, 2024).
In brackets after ≈: the same amount, converted by molar mass.

System: Human immunodeficiency virus 1
Assay: Antiviral activity against HIV1 IIIB harboring RES056 mutant infected in MT4 cells assessed as reduction in virus induced cytopathic effect incubated for 5 days by MTT method
Type: functional, organism-based
Conditions: Human immunodeficiency virus 1, IIIB, MT4, 120 h

**Q.** For `Cc1cc(/C=C/C#N)cc(C)c1Oc1nc(NC2CCN(Cc3cn(CC(=O)NC4CC4)nn3)CC2)nc2sccc12`, which EC50 is on record?
**A.** 84 nM

**Q.** For `Cc1cc(/C=C/C#N)cc(C)c1Oc1nc(NC2CCN(Cc3cn(CC(=O)NC4CCOCC4)nn3)CC2)nc2sccc12`, which EC50 is on record?
**A.** 62 nM

**Q.** Which EC50 does the source give for `Cc1cc(/C=C/C#N)cc(C)c1Oc1ccnc(NC2CCN(Cc3cn(CC(=O)NC4CC4)nn3)CC2)n1` here?
**A.** 85 nM

System: not listed separately
Assay: Aqueous solubility of compound at pH 7 incubated for 24 hrs under shaking condition by HPLC method
Type: physicochemical
Conditions: buffer

**Q.** For `Cc1cc(/C=C/C#N)cc(C)c1Oc1nc(NC2CCN(Cc3cn(CC(=O)NC4CCOCC4)nn3)CC2)nc2sccc12`, which solubility thermodynamic at 24 h is on record?
**A.** 22.5 µg/mL (≈ 35.8 µM)

**Q.** Which solubility thermodynamic at 24 h does the source give for `Cc1cc(/C=C/C#N)cc(C)c1Oc1ccnc(NC2CCN(Cc3cn(CC(=O)NC4CC4)nn3)CC2)n1` here?
**A.** 198 µg/mL (≈ 375 µM)

System: Human immunodeficiency virus 1
Assay: Antiviral activity against HIV1 IIIB infected in MT4 cells assessed as reduction in virus induced cytopathic effect incubated for 5 days by MTT method
Type: functional, organism-based
Conditions: Human immunodeficiency virus 1, IIIB, MT4, 120 h

**Q.** Which EC50 does the source give for `Cc1cc(/C=C/C#N)cc(C)c1Oc1nc(NC2CCN(Cc3cn(CC(=O)NC4CC4)nn3)CC2)nc2sccc12` here?
**A.** 5 nM

**Q.** Which EC50 does the source give for `Cc1cc(/C=C/C#N)cc(C)c1Oc1nc(NC2CCN(Cc3cn(CC(=O)NC4CCOCC4)nn3)CC2)nc2sccc12` here?
**A.** 3 nM

**Q.** With `Cc1cc(/C=C/C#N)cc(C)c1Oc1ccnc(NC2CCN(Cc3cn(CC(=O)NC4CC4)nn3)CC2)n1` as the molecule, how does the EC50 read?
**A.** 2 nM

System: Human immunodeficiency virus 1
Assay: Antiviral activity against HIV1 IIIB harboring Y188L mutant infected in MT4 cells assessed as fold increase in reduction of virus induced cytopathic effect incubated for 5 days by MTT method relative to A6N36
Type: functional
Conditions: time 5 day

**Q.** For `Cc1cc(/C=C/C#N)cc(C)c1Oc1nc(NC2CCN(Cc3cn(CC(=O)NC4CC4)nn3)CC2)nc2sccc12`, which “fold change (FC)” value is on record?
**A.** 3

**Q.** With `Cc1cc(/C=C/C#N)cc(C)c1Oc1nc(NC2CCN(Cc3cn(CC(=O)NC4CCOCC4)nn3)CC2)nc2sccc12` as the molecule, how does the “fold change (FC)” value read?
**A.** 3

System: Human immunodeficiency virus 1
Assay: Antiviral activity against HIV1 IIIB harboring F227L/V106A double mutant infected in MT4 cells assessed as reduction in virus induced cytopathic effect incubated for 5 days by MTT method
Type: functional, organism-based
Conditions: Human immunodeficiency virus 1, IIIB, MT4, 120 h

**Q.** With `Cc1cc(/C=C/C#N)cc(C)c1Oc1nc(NC2CCN(Cc3cn(CC(=O)NC4CC4)nn3)CC2)nc2sccc12` as the molecule, how does the EC50 read?
**A.** 156 nM

**Q.** With `Cc1cc(/C=C/C#N)cc(C)c1Oc1nc(NC2CCN(Cc3cn(CC(=O)NC4CCOCC4)nn3)CC2)nc2sccc12` as the molecule, how does the EC50 read?
**A.** 47 nM

**Q.** With `Cc1cc(/C=C/C#N)cc(C)c1Oc1ccnc(NC2CCN(Cc3cn(CC(=O)NC4CC4)nn3)CC2)n1` as the molecule, how does the EC50 read?
**A.** 66 nM

System: Human immunodeficiency virus 1
Assay: Antiviral activity against HIV1 IIIB harboring L100I mutant infected in MT4 cells assessed as reduction in virus induced cytopathic effect incubated for 5 days by MTT method
Type: functional, organism-based
Conditions: Human immunodeficiency virus 1, IIIB, MT4, 120 h

**Q.** Which EC50 does the source give for `Cc1cc(/C=C/C#N)cc(C)c1Oc1nc(NC2CCN(Cc3cn(CC(=O)NC4CC4)nn3)CC2)nc2sccc12` here?
**A.** 6 nM

**Q.** With `Cc1cc(/C=C/C#N)cc(C)c1Oc1nc(NC2CCN(Cc3cn(CC(=O)NC4CCOCC4)nn3)CC2)nc2sccc12` as the molecule, how does the EC50 read?
**A.** 5 nM

**Q.** With `Cc1cc(/C=C/C#N)cc(C)c1Oc1ccnc(NC2CCN(Cc3cn(CC(=O)NC4CC4)nn3)CC2)n1` as the molecule, how does the EC50 read?
**A.** 9 nM

System: not listed separately
Assay: Selectivity index, ratio of CC50 for human MT4 cells to EC50 for antiviral activity against HIV1 IIIB infected in MT4 cells
Type: toxicity, cell-based
Conditions: read-out: Ratio CC50/EC50

**Q.** Which selectivity ratio does the source give for `Cc1cc(/C=C/C#N)cc(C)c1Oc1nc(NC2CCN(Cc3cn(CC(=O)NC4CC4)nn3)CC2)nc2sccc12` here?
**A.** 3520

**Q.** For `Cc1cc(/C=C/C#N)cc(C)c1Oc1nc(NC2CCN(Cc3cn(CC(=O)NC4CCOCC4)nn3)CC2)nc2sccc12`, which selectivity ratio is on record?
**A.** 4980

**Q.** Which selectivity ratio does the source give for `Cc1cc(/C=C/C#N)cc(C)c1Oc1ccnc(NC2CCN(Cc3cn(CC(=O)NC4CC4)nn3)CC2)n1` here?
**A.** 14000

System: not listed separately
Assay: Cytotoxicity against human MT4 cells assessed as reduction in cell viability incubated for 5 days by MTT method
Type: toxicity, cell-based
Conditions: time 5 day

**Q.** For `Cc1cc(/C=C/C#N)cc(C)c1Oc1nc(NC2CCN(Cc3cn(CC(=O)NC4CC4)nn3)CC2)nc2sccc12`, which CC50 at 120 h is on record?
**A.** 16900 nM

**Q.** Which CC50 at 120 h does the source give for `Cc1cc(/C=C/C#N)cc(C)c1Oc1nc(NC2CCN(Cc3cn(CC(=O)NC4CCOCC4)nn3)CC2)nc2sccc12` here?
**A.** 16000 nM

**Q.** For `Cc1cc(/C=C/C#N)cc(C)c1Oc1ccnc(NC2CCN(Cc3cn(CC(=O)NC4CC4)nn3)CC2)n1`, which CC50 at 120 h is on record?
**A.** 21000 nM

System: not listed separately
Assay: Aqueous solubility of compound at pH 2 incubated for 24 hrs under shaking condition by HPLC method
Type: physicochemical
Conditions: buffer

**Q.** For `Cc1cc(/C=C/C#N)cc(C)c1Oc1nc(NC2CCN(Cc3cn(CC(=O)NC4CCOCC4)nn3)CC2)nc2sccc12`, which solubility thermodynamic at 24 h is on record?
**A.** 1610 µg/mL (≈ 2570 µM)

**Q.** Which solubility thermodynamic at 24 h does the source give for `Cc1cc(/C=C/C#N)cc(C)c1Oc1ccnc(NC2CCN(Cc3cn(CC(=O)NC4CC4)nn3)CC2)n1` here?
**A.** 3190 µg/mL (≈ 6040 µM)

System: Human immunodeficiency virus 1
Assay: Antiviral activity against HIV1 IIIB harboring Y181C mutant infected in MT4 cells assessed as reduction in virus induced cytopathic effect incubated for 5 days by MTT method
Type: functional, organism-based
Conditions: Human immunodeficiency virus 1, IIIB, MT4, 120 h

**Q.** For `Cc1cc(/C=C/C#N)cc(C)c1Oc1nc(NC2CCN(Cc3cn(CC(=O)NC4CC4)nn3)CC2)nc2sccc12`, which EC50 is on record?
**A.** 16 nM

**Q.** For `Cc1cc(/C=C/C#N)cc(C)c1Oc1nc(NC2CCN(Cc3cn(CC(=O)NC4CCOCC4)nn3)CC2)nc2sccc12`, which EC50 is on record?
**A.** 15 nM

**Q.** With `Cc1cc(/C=C/C#N)cc(C)c1Oc1ccnc(NC2CCN(Cc3cn(CC(=O)NC4CC4)nn3)CC2)n1` as the molecule, how does the EC50 read?
**A.** 7 nM

Molecular target: Human immunodeficiency virus type 1 reverse transcriptase (Human immunodeficiency virus 1) (UniProt Q72547)
Assay: Inhibition of HIV-1 reverse transcriptase incubated for 2 hrs in presence of template and viral nucleotides by ELISA relative to control
Design: concentration or dose not given beside the values
Conditions: concentration not given here

**Q.** Which inhibition does the source give for `Cc1cc(/C=C/C#N)cc(C)c1Oc1ccnc(NC2CCN(Cc3cn(CC(=O)NC4CC4)nn3)CC2)n1` here?
**A.** 92.4%

System: Human immunodeficiency virus 1
Assay: Antiviral activity against HIV1 IIIB harboring Y188L mutant infected in MT4 cells assessed as reduction in virus induced cytopathic effect incubated for 5 days by MTT method
Type: functional, organism-based
Conditions: Human immunodeficiency virus 1, IIIB, MT4, 120 h

**Q.** With `Cc1cc(/C=C/C#N)cc(C)c1Oc1nc(NC2CCN(Cc3cn(CC(=O)NC4CC4)nn3)CC2)nc2sccc12` as the molecule, how does the EC50 read?
**A.** 38 nM

**Q.** With `Cc1cc(/C=C/C#N)cc(C)c1Oc1nc(NC2CCN(Cc3cn(CC(=O)NC4CCOCC4)nn3)CC2)nc2sccc12` as the molecule, how does the EC50 read?
**A.** 29 nM

**Q.** With `Cc1cc(/C=C/C#N)cc(C)c1Oc1ccnc(NC2CCN(Cc3cn(CC(=O)NC4CC4)nn3)CC2)n1` as the molecule, how does the EC50 read?
**A.** 91 nM

System: Human immunodeficiency virus 1
Assay: Antiviral activity against HIV1 IIIB harboring K103 N mutant infected in MT4 cells assessed as reduction in virus induced cytopathic effect incubated for 5 days by MTT method
Type: functional, organism-based
Conditions: Human immunodeficiency virus 1, IIIB, MT4, 120 h

**Q.** Which EC50 does the source give for `Cc1cc(/C=C/C#N)cc(C)c1Oc1nc(NC2CCN(Cc3cn(CC(=O)NC4CCOCC4)nn3)CC2)nc2sccc12` here?
**A.** 5 nM

Molecular target: Human immunodeficiency virus type 1 reverse transcriptase (Human immunodeficiency virus 1, UniProt Q72547)
Assay: Inhibition of HIV-1 reverse transcriptase assessed as reduction in biotin-dUTP incorporation incubated for 2 hrs in presence of template and viral nucleotides by ELISA
Conditions: not given

**Q.** With `Cc1cc(/C=C/C#N)cc(C)c1Oc1nc(NC2CCN(Cc3cn(CC(=O)NC4CC4)nn3)CC2)nc2sccc12` as the molecule, how does the IC50 read?
**A.** 214 nM

**Q.** With `Cc1cc(/C=C/C#N)cc(C)c1Oc1nc(NC2CCN(Cc3cn(CC(=O)NC4CCOCC4)nn3)CC2)nc2sccc12` as the molecule, how does the IC50 read?
**A.** 220 nM

**Q.** With `Cc1cc(/C=C/C#N)cc(C)c1Oc1ccnc(NC2CCN(Cc3cn(CC(=O)NC4CC4)nn3)CC2)n1` as the molecule, how does the IC50 read?
**A.** 40 nM

System: Human immunodeficiency virus 1
Assay: Antiviral activity against HIV1 IIIB harboring E138K mutant infected in MT4 cells assessed as reduction in virus induced cytopathic effect incubated for 5 days by MTT method
Type: functional, organism-based
Conditions: Human immunodeficiency virus 1, IIIB, MT4, 120 h

**Q.** Which EC50 does the source give for `Cc1cc(/C=C/C#N)cc(C)c1Oc1nc(NC2CCN(Cc3cn(CC(=O)NC4CC4)nn3)CC2)nc2sccc12` here?
**A.** 22 nM

**Q.** Which EC50 does the source give for `Cc1cc(/C=C/C#N)cc(C)c1Oc1nc(NC2CCN(Cc3cn(CC(=O)NC4CCOCC4)nn3)CC2)nc2sccc12` here?
**A.** 18 nM

**Q.** Which EC50 does the source give for `Cc1cc(/C=C/C#N)cc(C)c1Oc1ccnc(NC2CCN(Cc3cn(CC(=O)NC4CC4)nn3)CC2)n1` here?
**A.** 7 nM

System: not listed separately
Assay: Aqueous solubility of compound at pH 7.4 incubated for 24 hrs under shaking condition by HPLC method
Type: physicochemical
Conditions: buffer

**Q.** For `Cc1cc(/C=C/C#N)cc(C)c1Oc1nc(NC2CCN(Cc3cn(CC(=O)NC4CCOCC4)nn3)CC2)nc2sccc12`, which solubility thermodynamic at 24 h is on record?
**A.** 23.1 µg/mL (≈ 36.8 µM)

**Q.** With `Cc1cc(/C=C/C#N)cc(C)c1Oc1ccnc(NC2CCN(Cc3cn(CC(=O)NC4CC4)nn3)CC2)n1` as the molecule, how does the solubility thermodynamic at 24 h read?
**A.** 85 µg/mL (≈ 161 µM)
